Key:
Assay in all cases: relative viability (nuclei count vs DMSO), 5 days (fraction); higher = more cells survive
Bemcentinib + Pemetrexed = compound: Nc1nc(Nc2ccc3c(c2)CC[C@@H](N2CCCC2)CC3)nn1-c1cc2c(nn1)-c1ccccc1CCC2 [Bemcentinib] + Nc1nc2[nH]cc(CCc3ccc(C(=O)N[C@@H](CCC(=O)O)C(=O)O)cc3)c2c(=O)[nH]1 [Pemetrexed] (partner 0.2 µM)
Method in brief: (§1)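 For relative viability, nuclei counts in treated wells were divided by those in vehicle wells. Lung cancer cell lines had been pin-tool dosed in 1536-well plates the day after seeding and cultured for 5 days, then fixed and stained in one step (final 0.05% Triton X-100, 1% formaldehyde, 1 ug/ml Hoechst) and imaged at 4×. Doses were one drug alone or a fixed anchor-drug dose plus five library-drug doses (not always all listed) in √10 steps, and values are duplicate-plate medians.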

Bemcentinib + Luminespib = compound: Nc1nc(Nc2ccc3c(c2)CC[C@@H](N2CCCC2)CC3)nn1-c1cc2c(nn1)-c1ccccc1CCC2 [Bemcentinib] + CCNC(=O)c1noc(-c2cc(C(C)C)c(O)cc2O)c1-c1ccc(CN2CCOCC2)cc1 [Luminespib] (partner 0.01 µM)
Method in brief: as §1

Axitinib + Crizotinib = compound: CNC(=O)c1ccccc1Sc1ccc2c(/C=C/c3ccccn3)n[nH]c2c1 [Axitinib] + C[C@@H](Oc1cc(-c2cnn(C3CCNCC3)c2)cnc1N)c1c(Cl)ccc(F)c1Cl [Crizotinib] (partner 1 µM)
Method in brief: as §1

Bemcentinib + Crizotinib = compound: Nc1nc(Nc2ccc3c(c2)CC[C@@H](N2CCCC2)CC3)nn1-c1cc2c(nn1)-c1ccccc1CCC2 [Bemcentinib] + C[C@@H](Oc1cc(-c2cnn(C3CCNCC3)c2)cnc1N)c1c(Cl)ccc(F)c1Cl [Crizotinib] (partner 1 µM)
Method in brief: as §1

Cell Line	relative viability (Bemcentinib + Pemetrexed; first compound 0.04 µM)	relative viability (Bemcentinib + Pemetrexed; first compound 0.1265 µM)	relative viability (Bemcentinib + Pemetrexed; first compound 0.4 µM)	relative viability (Bemcentinib + Pemetrexed; first compound 1.265 µM)	relative viability (Bemcentinib + Pemetrexed; first compound 4 µM)	relative viability (Bemcentinib + Luminespib; first compound 0.04 µM)	relative viability (Bemcentinib + Luminespib; first compound 0.1265 µM)	relative viability (Bemcentinib + Luminespib; first compound 0.4 µM)	relative viability (Bemcentinib + Luminespib; first compound 1.265 µM)	relative viability (Bemcentinib + Luminespib; first compound 4 µM)	relative viability (Axitinib + Crizotinib; first compound 0.005 µM)	relative viability (Axitinib + Crizotinib; first compound 0.01581 µM)	relative viability (Axitinib + Crizotinib; first compound 0.05 µM)	relative viability (Axitinib + Crizotinib; first compound 0.1581 µM)	relative viability (Axitinib + Crizotinib; first compound 0.5 µM)	relative viability (Bemcentinib + Crizotinib; first compound 0.04 µM)	relative viability (Bemcentinib + Crizotinib; first compound 0.1265 µM)	relative viability (Bemcentinib + Crizotinib; first compound 0.4 µM)	relative viability (Bemcentinib + Crizotinib; first compound 1.265 µM)	relative viability (Bemcentinib + Crizotinib; first compound 4 µM)
HARA	0.236	0.243	0.241	0.245	0.196	0.603	0.983	0.719	1.03	0.597	1.07	1.07	1.1	0.978	1.14	1.02	1.28	1.22	1.08	1.03
HCC-15	0.231	0.219	0.226	0.218	0.221	0.326	0.485	0.293	0.253	0.235	0.907	0.84	0.793	0.696	0.825	0.834	0.91	0.908	0.871	0.92
HCC-44	0.676	0.665	0.684	0.723	0.679	1.05	1.4	1.02	1.06	1.05	0.898	0.834	0.841	0.792	0.869	0.832	0.806	0.864	0.813	0.852
HCC-78	0.923	1.01	0.942	0.895	0.95	–	–	–	–	–	0.345	0.35	0.301	0.338	0.375	0.322	0.344	0.334	0.334	0.328
HCC-366	0.175	0.185	0.179	0.173	0.157	–	–	–	–	–	0.628	0.657	0.603	0.487	0.669	0.524	0.902	0.583	0.629	0.383
HCC-827	0.267	0.267	0.266	0.262	0.286	0.689	0.6	0.624	0.742	0.589	0.882	0.905	0.914	0.886	0.943	0.971	0.867	0.914	1	0.939
HOP-62	0.348	0.357	0.385	0.37	0.359	0.863	0.875	0.844	1.02	1	0.941	1.1	0.93	0.981	0.929	1.01	1.08	–	0.734	1.03
IA-LM	–	–	–	–	–	–	–	–	–	–	0.95	0.737	1.05	1.04	0.982	0.777	0.654	0.947	0.752	0.842
LC-2-ad	0.252	0.28	0.258	0.262	0.273	0.997	1.11	1.03	0.935	0.905	0.404	0.483	0.496	0.424	0.597	0.467	0.482	0.416	0.411	0.452
LCLC-97TM1	0.16	0.177	0.182	0.177	0.177	0.684	0.793	0.726	0.866	0.986	0.433	0.524	0.265	0.377	0.314	0.267	0.475	–	0.376	0.259
NCI-H522	1.03	0.908	0.897	1.04	1.18	0.95	1.15	1.16	1.21	1.06	–	–	–	–	–	–	–	–	–	–
NCI-H727	–	–	–	–	–	0.352	0.383	0.268	0.29	0.303	0.823	0.693	0.872	0.793	0.985	0.666	1.08	0.743	0.801	0.817
NCI-H1299	–	–	–	–	–	–	–	–	–	–	0.997	0.947	0.986	1	1.04	0.963	0.967	1.02	0.937	0.942
NCI-H1395	–	1.03	0.903	0.797	0.82	0.611	0.733	0.808	0.686	1	–	–	–	–	–	–	–	–	–	–
NCI-H1623	–	–	–	–	–	0.498	0.547	0.588	0.481	0.467	–	–	–	–	–	–	–	–	–	–
NCI-H1648	0.717	0.761	0.818	0.697	0.841	–	–	–	–	–	–	–	–	–	–	–	–	–	–	–
NCI-H1703	–	–	–	–	–	–	–	–	–	–	0.777	0.27	0.158	0.136	0.237	–	0.687	0.723	0.717	0.627
NCI-H1793	0.853	1.05	0.933	0.853	0.813	0.211	0.179	0.169	–	0.18	–	–	–	–	–	–	–	–	–	–
NCI-H2342	0.703	0.805	0.823	0.728	0.787	0.689	0.762	0.679	0.83	0.794	–	–	–	–	–	–	–	–	–	–
SW 900	0.492	0.541	0.485	0.433	0.48	0.169	0.203	0.174	0.156	0.17	–	–	–	–	–	–	–	–	–	–
